Earlier results in patent publication US9433620B2, “Pharmaceutical compositions of lurasidone” (CADILA HEALTHCARE LIMITED, priority 2011, dated 2016).
Structures can show the parent of a compound that is named as a salt.

solubility in water: less than several
Compound: O=C1[C@@H]2[C@H]3CC[C@H](C3)[C@@H]2C(=O)N1C[C@@H]1CCCC[C@H]1CN1CCN(c2nsc3ccccc23)CC1 [lurasidone, N-[4-[4-(1,2-benzisothiazol-3-yl)-1-piperazinyl]-(2R,3R)-2,3-tetramethyle-ne-butyl]-(1′R,2′S,3′R,4′S)-2,3-bicyclo[2,2,1]heptanedicarboxylmide hydrochloride]
